{"source": "patent US20250041327A1", "about": "“COMPOSITIONS FOR PREVENTING OR FOR REDUCING RISK OF […] INFECTIOUS DISEASES” (priority 2021, published 2025)", "key": {"ZO-1": {"tested_on": "ZO-1", "type": "cell-based, human", "conditions": "A549 cells, EPS pre-treatment study; BXA 250 nM; viral-infection vs non-viral infection group"}, "occludin": {"tested_on": "occludin", "type": "cell-based, human", "conditions": "A549 cells, EPS pre-treatment study; BXA 250 nM; viral-infection vs non-viral infection group"}, "CEACAM-1": {"tested_on": "CEACAM-1", "assay": "CEACAM-1 mRNA expression in virus-infected A549 cells (quantitative RT-PCR)", "conditions": "1×10^5 pfu virus, 1 hour with EPS then 6 hours, BXA 250 nM, compared with virus-infected cells"}, "fibronectin": {"tested_on": "fibronectin", "type": "cell-based, human", "conditions": "infected A549 cells, 1×10^5 pfu virus; BXA 250 nM"}, "ICAM-1": {"tested_on": "ICAM-1", "type": "cell-based, human", "conditions": "infected A549 cells, 1×10^5 pfu virus; BXA 250 nM"}, "PAF-r": {"tested_on": "PAF-r", "type": "cell-based, human", "conditions": "infected A549 cells, 1×10^5 pfu virus; BXA 250 nM"}, "E-cadherin": {"tested_on": "E-cadherin", "type": "cell-based, human", "conditions": "A549 cells, EPS pre-treatment study; BXA 250 nM; viral-infection vs non-viral infection group"}, "[1]": {"tested_on": "S. aureus strain ATCC 29213", "type": "cell-based", "conditions": "1×10^5 pfu virus, 1×10^5 cfu S. aureus for 1 hour; 400 μg EPS or 250 nM BXA per well; compared with virus-infected cells without treatment"}, "E-selectin": {"tested_on": "E-selectin", "type": "cell-based, human", "conditions": "infected A549 cells, 1×10^5 pfu virus; BXA 250 nM"}, "claudin-1": {"tested_on": "claudin-1", "type": "cell-based, human", "conditions": "A549 cells, EPS pre-treatment study; BXA 250 nM; viral-infection vs non-viral infection group"}, "VCAM-1": {"tested_on": "VCAM-1", "type": "cell-based, human", "conditions": "infected A549 cells, 1×10^5 pfu virus; BXA 250 nM"}}}
{"compound": "O=C1c2c(O)c(=O)ccn2N([C@@H]2c3ccccc3SCc3c2ccc(F)c3F)[C@@H]2COCCN12", "note": "[BXA, baloxavir acid]", "values": [{"measurement": "ZO-1 mRNA expression", "setting": "ZO-1", "value": "no difference"}, {"measurement": "occludin mRNA expression", "setting": "occludin", "value": "no difference"}, {"measurement": "CEACAM-1 mRNA expression increased by influenza virus infection", "setting": "CEACAM-1", "value": "significantly reduced"}, {"measurement": "fibronectin mRNA expression", "setting": "fibronectin", "value": "not changed"}, {"measurement": "ICAM-1 mRNA expression", "setting": "ICAM-1", "value": "not changed"}, {"measurement": "PAF-r mRNA expression", "setting": "PAF-r", "value": "not changed"}, {"measurement": "E-cadherin mRNA expression", "setting": "E-cadherin", "value": "no difference"}, {"measurement": "numbers of adhered bacteria on virus-infected A549 cells", "setting": "[1]", "value": "did not decrease"}, {"measurement": "E-selectin mRNA expression", "setting": "E-selectin", "value": "not changed"}, {"measurement": "claudin-1 mRNA expression", "setting": "claudin-1", "value": "no difference"}, {"measurement": "VCAM-1 mRNA expression", "setting": "VCAM-1", "value": "not changed"}]}
